From publication PMC4490105 (Cell reports, 2015)

How the values were obtained:
[1] = tested on: influenza A/PR/8/34 (PR8); details: ref Shirey et al., 2013; cited from earlier work
[2] = tested on: TLR7; test: R848; type: cell-based, mouse; details: murine macrophages; R848 (2.85 μM); Figure 2E, F
[3] = biological target: NF-kB activator 1 CC loop decoy peptide SEFIR CC loop (Homo sapiens) (UniProt O43734); test: SPR; details: cited from earlier work

IL-17RA, sequence (Q96F46 33-866): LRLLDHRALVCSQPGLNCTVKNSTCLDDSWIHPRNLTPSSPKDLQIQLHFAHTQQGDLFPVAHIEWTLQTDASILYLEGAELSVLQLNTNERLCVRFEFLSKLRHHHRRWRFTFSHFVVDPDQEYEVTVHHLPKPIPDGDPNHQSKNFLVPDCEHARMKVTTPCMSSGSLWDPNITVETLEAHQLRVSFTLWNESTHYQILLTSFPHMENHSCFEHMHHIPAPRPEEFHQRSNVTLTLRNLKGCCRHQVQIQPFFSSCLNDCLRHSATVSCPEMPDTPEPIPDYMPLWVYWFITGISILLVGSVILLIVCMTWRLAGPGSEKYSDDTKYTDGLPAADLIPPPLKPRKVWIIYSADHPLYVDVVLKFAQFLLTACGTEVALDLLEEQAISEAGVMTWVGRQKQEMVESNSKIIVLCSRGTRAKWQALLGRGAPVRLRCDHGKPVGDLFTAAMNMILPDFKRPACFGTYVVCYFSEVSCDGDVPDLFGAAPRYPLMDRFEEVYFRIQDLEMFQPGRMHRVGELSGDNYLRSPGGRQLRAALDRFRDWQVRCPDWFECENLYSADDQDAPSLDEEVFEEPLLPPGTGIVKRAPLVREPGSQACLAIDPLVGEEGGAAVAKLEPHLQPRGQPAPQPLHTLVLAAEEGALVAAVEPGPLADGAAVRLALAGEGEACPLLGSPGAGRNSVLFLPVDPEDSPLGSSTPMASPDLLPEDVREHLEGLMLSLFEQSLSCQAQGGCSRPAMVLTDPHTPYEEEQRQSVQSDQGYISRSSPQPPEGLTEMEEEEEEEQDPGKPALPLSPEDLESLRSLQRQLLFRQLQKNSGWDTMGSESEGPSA

Compound: CCCCCC/C=C\CCCCCCCCCC(=O)N[C@H]1[C@H](OC[C@H]2O[C@H](OP(=O)(O)O)[C@H](NC(=O)CC(=O)CCCCCCCCCCC)[C@@H](OCCCCCCCCCC)[C@@H]2O)O[C@H](COC)[C@@H](OP(=O)(O)O)[C@@H]1OCC[C@@H](CCCCCCC)OC [Eritoran]
- Protection from PR8 infection, TLR2−/− mice [1]: could not be protected
- Protection from PR8 infection, mice [1]: protected mice from PR8 infection

Compound: CCOCc1nc2c(N)nc3ccccc3c2n1CC(C)(C)O [R848]
- Induction of TNF-α and IL-6 [2]: induced robust production

Compound: IL-17RA (from UniProt Q96F46)
- Kd [3]: 117 µM
